We go through 18 compounds from ChEMBL document CHEMBL4229505, “4-Aminophenyl acetamides and propanamides as potent transient receptor potential vanilloid 1 (TRPV1) ligands” (Bioorg Med Chem, 2018).

In data set [1] the target is T1, Transient receptor potential cation channel subfamily V member 1 (Homo sapiens, UniProt Q8NER1). As to the kind of experiment: Antagonist activity at human TRPV1 expressed in CHOK1 cells assessed as reduction in capsaicin-induced intracellular calcium level preincubated for 6 mins followed by capsaicin addition by Fluo-4 dye based FLIPR assay. The class given is cell-based. For orientation: Calcium flux is commonly read through the fluorescence of an indicator in the cells.

Data set [2] has as its target T1, Transient receptor potential cation channel subfamily V member 1. As to the kind of experiment: Agonist activity at human TRPV1 expressed in CHO cells assessed as intracellular calcium accumulation by Fluo-4 dye based FLIPR assay. Format: cell-based.
For data set [3] the target is unchanged. Briefly: Partial agonist activity at human TRPV1 expressed in CHO cells assessed as intracellular calcium accumulation by Fluo-4 dye based FLIPR assay. Format: cell-based.
Data set [4] deals with Mus musculus. Briefly: Induction of hyperthermic effect in NMRI mouse assessed as increase in body temperature at 3 mg/kg, po. The class given is organism-based. The conditions noted are these: in vivo.
In data set [5] the target is T1, Transient receptor potential cation channel subfamily V member 1. As to the kind of experiment: Antagonist activity at human TRPV1 expressed in CHOK1 cells assessed as reduction in NADA-induced intracellular calcium level preincubated with cells followed by NADA addition measured after 5 mins by Fluo-4 dye based FLIPR assay. Format: cell-based.
The test system of data set [6] is Mus musculus. Briefly: Anti-hypothermic activity in NMRI mouse assessed as inhibition of capsaicin-induced […] in body temperature at 10 mg/kg, po pretreated for 15 mins followed by capsaicin treatment measured up to 120 mins relative to control. Format: functional.
Data set [7] deals with Mus musculus. As to the kind of experiment: Anti-hypothermic activity in NMRI mouse assessed as inhibition of capsaicin-induced […] in body temperature at 3 mg/kg, po pretreated for 15 mins followed by capsaicin treatment measured up to 120 mins relative to control. The class given is functional.
In data set [8] the target is T1, Transient receptor potential cation channel subfamily V member 1. Briefly: Antagonist activity at human TRPV1 expressed in CHOK1 cells assessed as reduction in low pH-induced receptor activation by measuring decrease in intracellular calcium level preincubated with cells for 5 mins followed by incubation under pH 6 to 6.3 condition by Fluo-4 dye based FLIPR assay. The class given is cell-based.

For data set [9] the target is unchanged. Briefly: Antagonist activity at human TRPV1 expressed in CHOK1 cells assessed as reduction in heat-induced intracellular calcium level preincubated with cells for 5 mins followed by incubation under 45 degC by Fluo-4 dye based FLIPR assay. Format: cell-based.

Activity calls are given as the source filed them. No cut-off for these calls is given here.

T1 sequence (Q8NER1 whole entry): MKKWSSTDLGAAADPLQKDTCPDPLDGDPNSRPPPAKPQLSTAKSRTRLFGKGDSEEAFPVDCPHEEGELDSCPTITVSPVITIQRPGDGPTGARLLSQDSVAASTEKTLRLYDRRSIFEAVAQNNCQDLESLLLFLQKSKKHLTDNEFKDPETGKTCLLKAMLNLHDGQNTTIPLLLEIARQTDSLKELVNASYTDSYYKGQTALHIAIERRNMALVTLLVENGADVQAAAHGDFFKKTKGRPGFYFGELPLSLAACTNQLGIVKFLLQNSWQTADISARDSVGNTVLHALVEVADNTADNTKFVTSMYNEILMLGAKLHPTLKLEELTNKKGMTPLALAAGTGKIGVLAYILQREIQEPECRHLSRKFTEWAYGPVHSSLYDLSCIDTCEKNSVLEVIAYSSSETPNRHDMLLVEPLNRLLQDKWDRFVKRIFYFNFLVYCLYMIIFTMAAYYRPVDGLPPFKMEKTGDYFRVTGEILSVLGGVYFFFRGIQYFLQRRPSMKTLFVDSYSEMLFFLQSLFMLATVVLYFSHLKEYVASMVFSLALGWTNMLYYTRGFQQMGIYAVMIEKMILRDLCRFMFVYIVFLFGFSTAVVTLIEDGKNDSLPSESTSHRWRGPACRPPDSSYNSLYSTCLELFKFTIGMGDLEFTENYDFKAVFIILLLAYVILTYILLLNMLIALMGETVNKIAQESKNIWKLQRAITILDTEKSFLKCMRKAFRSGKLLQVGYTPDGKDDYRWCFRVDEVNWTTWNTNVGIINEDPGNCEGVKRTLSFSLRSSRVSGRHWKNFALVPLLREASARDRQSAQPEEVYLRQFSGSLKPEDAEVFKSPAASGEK

On to `CC1CCN(c2nc(C(F)(F)F)ccc2CNC(=O)C(C)c2cc(O)c(N)c(F)c2)CC1` (centres undefined), for which the inhibition constant (Ki) in [1] (read-out: Ki) was 5.3 nM.

`CC1CCN(c2nc(C(F)(F)F)ccc2CNC(=O)C(C)c2ccc(NC(=O)C(C)C)c(F)c2)CC1` (centres undefined): the Ki in data set [1] (read-out: Ki) was determined as 26.4 nM.

As to `CC1CCN(c2nc(C(F)(F)F)ccc2CNC(=O)C(C)c2ccc(NC(=O)C3CC3)c(F)c2)CC1` (centres undefined), the Ki in [1] (read-out: Ki) turned out to be 20 nM.

As for `CC1CCN(c2nc(C(F)(F)F)ccc2CNC(=O)C(C)c2ccc(N)c(F)c2)CC1` (centres undefined), the outcome in [2] was Active.

Take `CC1CCN(c2nc(C(F)(F)F)ccc2CNC(=O)C(C)c2ccc(Nc3ccc(F)cc3)cc2)CC1` (centres undefined): the Ki result in data set [1] is given as “Not Active”.

On to `COc1cc(C(C)C(=O)NCc2ccc(C(F)(F)F)nc2N2CCC(C)CC2)cc(OC)c1N` (centres undefined), for which, in data set [1] (read-out: Ki), the inhibition constant (Ki) stood at 21 nM.

For the compound `CC1CCN(c2nc(C(F)(F)F)ccc2CNC(=O)C(C)c2ccc(Nc3ccc(Cl)cc3)cc2)CC1` (centres undefined), in [1] (read-out: Ki), the inhibition constant (Ki) is 66.5 nM.

Regarding `COc1ccc(Nc2ccc(C(C)C(=O)NCc3ccc(C(F)(F)F)nc3N3CCC(C)CC3)cc2)cc1` (centres undefined), the outcome in data set [3] was Active.

Take `CC1CCN(c2nc(C(F)(F)F)ccc2CNC(=O)C(C)c2cc(Cl)c(N)c(Cl)c2)CC1` (centres undefined): in data set [1] (read-out: Ki), the Ki was 2.4 nM.

With `CC1CCN(c2nc(C(F)(F)F)ccc2CNC(=O)C(C)c2ccc(Nc3ccccn3)cc2)CC1` (centres undefined), the result in data set [2] was Active.

In the case of `COc1cc(C(C)C(=O)NCc2ccc(C(F)(F)F)nc2N2CCC(C)CC2)cc(F)c1N` (centres undefined), the result in data set [3] was Active.

As for `COc1cc(C(C)C(=O)NCc2ccc(C(F)(F)F)nc2N2CCC(C)CC2)ccc1N` (centres undefined), in data set [2], the result was Active.

Turning to `CC1CCN(c2nc(C(F)(F)F)ccc2CNC(=O)C(C)c2ccc(NC(=O)C(C)(C)C)c(F)c2)CC1` (centres undefined), the Ki in data set [1] (read-out: Ki) is 51.9 nM.

On to `CC1CCN(c2nc(C(F)(F)F)ccc2CNC(=O)C(C)c2ccc(NC(=O)c3ccccc3)c(F)c2)CC1` (centres undefined), for which the Ki in data set [1] (read-out: Ki) worked out at 7.4 nM.

In the case of `Cc1cc(C(C)C(=O)NCc2ccc(C(F)(F)F)nc2N2CCC(C)CC2)ccc1N` (centres undefined), the outcome in data set [2] was Active.

With `CC1CCN(c2nc(C(F)(F)F)ccc2CNC(=O)C(C)c2ccc(Nc3ccccc3)cc2)CC1` (centres undefined), the outcome in [2] was Active.

Regarding `CC1CCN(c2nc(C(F)(F)F)ccc2CNC(=O)Cc2cc(Cl)c(N)c(Cl)c2)CC1`, in data set [4], the deltaT is > 1 °C. Moreover, the Ki was 0.1 to 0.7 nM in data set [5] and 0.3 nM in data set [1] (read-out: Ki). For the same compound, the inhibition in vivo at 10 mg/kg in [6] worked out at 128%. The inhibition in vivo at 3 mg/kg in data set [7] amounted to 57%. Moreover, the values for the IC50 in data set [8] and in [9] were 158 nM and 12.8 nM, respectively.

For `CC1CCN(c2nc(C(F)(F)F)ccc2CNC(=O)C(C)c2ccc(N)c(N)c2)CC1` (centres undefined), the outcome in data set [2] was Active.

By Ki is commonly meant a measure of affinity in units of concentration, obtained from inhibition or displacement. By inhibition in vivo is commonly meant the drop in the measured response relative to a control, in per cent. By IC50 is commonly meant the concentration at which inhibition is half-maximal.
